How the values were obtained:
HUVECs = test: Nitric oxide production in HUVECs, DAF 2-DA fluorescence; assay type: cell-based, human; settings: 24 hours
Method: c. […] HUVECs are incubated with either vehicle, HGF/SF, instant compounds, or SNAP for 24 hours, loaded with the nitric oxide-sensitive fluorescence indicator DAF 2-DA and imaged under a laser scanning confocal microscope.
HGF and compounds of the invention may exert their anti-apoptotic effects in part through stimulation of nitric oxide production. We incubated HUVECs with either HGF or instant compounds and measured NO production using the nitric oxide-sensitive fluorescence indicator DAF 2-DA. […] Without wishing to be bound to any particular theory, we propose that the anti-apoptotic activities of both HGF and compounds of the invention may be mediated by nitric oxide production.

[1] = MTT cell viability assay, adriamycin-induced apoptosis; assay type: cell-based; settings: dog, MDCK cells, of untreated cells, read-out: cell viability, adriamycin alone
Description: (§1) a. HGF/SF and instant compounds have significant anti-apoptotic activity in cultured cell lines.
(§2) Using the MTT cell viability assay we tested the ability of compounds of the invention to protect cells from adriamycin-induced apoptosis. […] Adriamycin alone decreased cell viability to 56% of untreated cells.

isolated aortic rings = test: Aortic ring assay; assay type: cell-based, Sprague Dawley rats; settings: instant compound or HGF (100 ng/ml), day 5
Description: a. Aortic ring assay. Thoracic artery rings from rats are embedded in Matrigel and grown for 5 days in the presence or absence of HGF/SF or compounds of the invention. Treatment with compounds of the invention causes an increased outgrowth from the rings similar to that seen with HGF/SF.
Thoracic aortas from 100 gm Sprague Dawley rats are isolated under sterile conditions and cut into rings of approximately 0.8 to 1.0 mm in length. The rings are embedded in Matrigel in the bottom of 48 well culture plates and instant compound […] or HGF (100 ng/ml, as positive control) was added in […] of serum-free tissue culture medium (Human endothelial-SFM basal growth medium plus 1% bovine serum albumin). An inventive compound or HGF was replenished on day 4; on day 5, the rings were photographed and examined for outgrowths. […] Without wishing to be bound to any particular theory, we propose that inventive compounds are capable of activating proliferation of cells required for angiogenesis.

[2] = tested on: human hepatic stellate cell line LX2; test: Antifibrotic activity: collagen I mRNA in LX2 cells, real time PCR; assay type: cell-based; settings: serum starved LX2 cells, 24 hours; HGF 100 ng/ml, compounds 12 to 24 ug/ml
Method: a. Antifibrotic Activity in Hepatic Stellate Cells. Serum starved (activated) LX2 cells (an immortalized human hepatic stellate cell line) that are treated with HGF/SF or a compound of the invention show a decrease in collagen I mRNA expression, as well as expression of other fibrotic marker genes, related to significant antifibrotic activity.
The antifibrotic effects of HGF and compounds of the invention in the immortalized human hepatic stellate cell line LX2 are determined. Serum starved LX2 cells are treated for 24 hours with HGF at 100 ng/ml and compounds of the invention at doses ranging from 12 to 24 ug/ml. RNA is then isolated and real time PCR was performed to evaluate changes in collagen I mRNA. […] Additional experiments to determine the effects of HGF and compounds on TGFb-1, bPDGF-R and MMP-1 mRNA are also performed to more completely characterize activities of these compounds which can contribute to their antifibrotic effects.

MDCK cells = test: MTT cell viability assay, adriamycin-induced apoptosis; assay type: cell-based
Description: as §1, §2

C57BL/6 mice = settings: earlier studies with HGF; cited from earlier work
[3] = tested on: NIH-3T3 cells transfected with c-met receptor; test: Protection against adriamycin-induced apoptosis, c-met transfected NIH-3T3 cells, MTT assay; assay type: cell-based; settings: pre-treated 48 hr with HGF (50 ng/ml) or compound (12 mg/ml), adriamycin (15 mM) 2 hr
Method: b. Protection from apoptosis in NIH-3T3 cells transfected with c-met receptor.
NIH3T3 cells were pre-treated with HGF (50 ng/ml) or compound (12 mg/ml) for 48 hr. Cells were then exposed to adriamycin (ADR) (15 mM) for 2 hr, and post-incubated for 48 hr before performing the MTT assay. […] There was no protection from apoptosis by either compound in non-transfected cells lacking the c-met receptor.

Compound | nitric oxide production (DAF 2-DA fluorescence) (HUVECs) | viability [1] | endothelial cell outgrowth from aortic rings (isolated aortic rings) | decrease in collagen I mRNA expression [2] | cell viability after pretreatment, then adriamycin (MDCK cells; adriamycin-induced apoptosis) | cell viability, compound or HGF alone (MDCK cells; without adriamycin) | vessel area (C57BL/6 mice) | protection from adriamycin-induced apoptosis (MTT) [3] | nitric oxide production (DAF 2-DA fluorescence) (HUVECs; listed as HGF/SF)
CC(=O)N[C@@H](C(=O)O)C(C)(C)SN=O (racemic) [SNAP, reference compound] | significant increase in fluorescence |  |  |  |  |  |  |  | 
COc1cccc2c1C(=O)c1c(O)c3c(c(O)c1C2=O)C[C@@](O)(C(=O)CO)C[C@@H]3O[C@H]1C[C@H](N)[C@H](O)[C@H](C)O1 [Adriamycin, reference compound] |  | 56% |  |  |  |  |  |  | 
HGF: pleiotropic growth factor that stimulates cell growth, cell motility, morphogenesis and angiogenesis | stimulate nitric oxide production |  | stimulated equivalent endothelial cell outgrowth | 70% | 94% | no effect on cell viability | dose-dependently increases the vessel area | protect the cells from adriamycin-induced apoptosis | significant increase in fluorescence

Source: patent US8580834B2, “Small molecule modulators of hepatocyte growth factor (scatter factor) activity” (Angion Biomedica Corp., priority 2002, dated 2013)
